The numbers were not newly measured in patent US7491730B2, “Compositions useful as inhibitors of GSK-3” (Vertex Pharmaceuticals Incorporated, priority 2002, dated 2009), which cites them from elsewhere.

In this series the target is gamma secretase. Particulars: vendor value, Calbiochem catalog #565771; read-out: reported IC50.

Turning to `CC(C)C[C@H](NC(=O)[C@H](Cc1ccccc1)C[C@@H](O)[C@H](Cc1ccccc1)NC(=O)OC(C)(C)C)C(=O)N[C@@H](Cc1ccccc1)C(N)=O` [Inhibitor X], the IC50 is 50 nM.
